{"source": "patent US20130116302A1", "about": "“PHARMACEUTICAL COMPOSITION FOR THE TREATMENT OF CHLAMYDIAL INFECTION” (Max-Planck-Gesellschaft zur Foerderung der Wissenschaften …, priority 2010, published 2013)", "key": {"[1]": {"tested_on": "Chlamydia", "experiment": "effect of chemical inhibitors of GMPS on Chlamydia infection", "assay_type": "cell-based", "details": "for Chlamydia replication: chemical inhibitor of GMPS added to infected cells", "method": "The effect of chemical inhibitors of GMPS on Chlamydia infection was tested."}, "[2]": {"tested_on": "cPLA2", "details": "Su et al., 2004; cited from earlier work"}, "[3]": {"tested_on": "ERK", "details": "30 hours post-infection; FIG. 3A", "method": "(§1) Western blotting analysis (30 hours post-infection) of (A) uninfected and Ctr-infected cells with and without U0126, (B) uninfected and Ctr-infected cells transfected with siRNAs targeting luciferase or MEK1 and 2, and (C) uninfected and Ctr-infected cells transfected with siRNAs targeting luciferase, K-Ras, or Raf-1. β-actin was used as a loading control. (D) Uninfected and Ctr-infected cells treated with or without UO126 were lysed at 48 hours post-infection and these samples were used to infect freshly seeded cells. These cells were fixed 24 hours post-infection and the infectivity was quantified. Data shown are the mean±SD of three experiments normalized to mock-treated, infected cells. (E) Uninfected and Ctr-infected cells, untransfected of transfected with siRNAs specific for luciferase, K-Ras, or Raf-1 were lysed 48 hours post-infection and these samples were then used to infect freshly seeded cells. These cells were fixed 24 hours post-infection and the infectivity of the bacteria was quantified. […] Western blots depicted in (A) to (C) are representative of three experiments."}, "[4]": {"tested_on": "cPLA2", "details": "30 hours post-infection; FIG. 3A", "method": "as §1"}, "[5]": {"tested_on": "Chlamydia trachomatis (Ctr)", "details": "10 μM or 100 μM U0126 added 2 h after infection; lysed 48 h p.i.; FIG. 3D", "method": "as §1"}, "[6]": {"tested_on": "Ctr", "details": "Su et al., 2004; cited from earlier work"}, "[7]": {"tested_on": "P. falciparum", "details": "in vitro; cited from earlier work"}, "[8]": {"target": "GMPS (Escherichia coli, UniProt P04079)", "sequence (P04079 whole entry)": "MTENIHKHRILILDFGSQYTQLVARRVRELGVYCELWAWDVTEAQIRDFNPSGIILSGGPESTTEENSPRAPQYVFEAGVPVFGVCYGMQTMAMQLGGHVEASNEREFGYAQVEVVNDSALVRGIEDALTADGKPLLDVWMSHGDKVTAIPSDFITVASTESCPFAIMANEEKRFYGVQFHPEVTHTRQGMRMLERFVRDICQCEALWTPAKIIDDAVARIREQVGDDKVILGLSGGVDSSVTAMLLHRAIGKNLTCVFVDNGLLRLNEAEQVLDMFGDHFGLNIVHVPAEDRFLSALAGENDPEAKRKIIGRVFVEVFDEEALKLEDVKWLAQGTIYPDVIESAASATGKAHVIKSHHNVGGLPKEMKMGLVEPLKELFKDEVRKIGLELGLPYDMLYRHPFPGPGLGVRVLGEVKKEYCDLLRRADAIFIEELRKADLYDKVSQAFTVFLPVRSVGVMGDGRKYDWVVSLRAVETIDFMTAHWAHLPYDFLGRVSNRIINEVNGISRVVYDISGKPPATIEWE", "details": "Chittur et al., 2001, cited from earlier work"}, "[9]": {"tested_on": "Leishmania donovani", "details": "vector and host form; cited from earlier work"}, "[10]": {"tested_on": "bloodstream T. brucei", "details": "mouse model; cited from earlier work"}, "[11]": {"tested_on": "PPAT, GMPS, CAD, CTPS", "details": "de novo pathway of purine and pyrimidine synthesis; cited from earlier work"}, "[12]": {"tested_on": "bloodstream T. brucei", "details": "bloodstream T. brucei in culture; cited from earlier work"}, "[13]": {"tested_on": "cellular UTP, CTP, GMP, ATP, ITP", "details": "Neil et al., 1979; cited from earlier work"}, "[14]": {"tested_on": "C. trachomatis L2", "experiment": "genome-wide siRNA-based screen in human epithelial cells, formation of Chlamydia infectious progeny", "assay_type": "cell-based", "details": "Table 1b, primary screen, genes of nucleotide metabolism", "text": "We performed a genome-wide siRNA-based screen in human epithelial cells to identify host cell factors that are essential for Chlamydia infection using the Qiagen Hu_Genome Set V1.0 and the Human Druggable Genome siRNA Set V2.0. C. trachomatis L2 was used."}}, "note": "Read-outs that look alike come from different tables or passages of the source."}
{"compound": "C=C1O[C@@](CO)(n2cnc3c(N)ncnc32)[C@H](O)[C@@H]1O", "note": "[Decoyinine]", "values": [{"measurement": "Chlamydia replication", "setting": "[1]", "result": "no inhibitory effect"}]}
{"compound": "N#CC(=C(/N)Sc1ccccc1N)/C(C#N)=C(\\N)Sc1ccccc1N", "note": "[U0126]", "values": [{"measurement": "extent of phosphorylation of cPLA2", "setting": "[2]", "result": "reduces"}, {"measurement": "phosphorylation of ERK in response to infection", "setting": "[3]", "result": "repressed"}, {"measurement": "phosphorylation of cPLA2 in response to infection", "setting": "[4]", "result": "repressed"}, {"measurement": "infectivity of Ctr", "setting": "[5]", "result": "decreased"}, {"measurement": "infectivity of Ctr", "setting": "[6]", "result": "decreases"}]}
{"compound": "N[C@H](C(=O)O)[C@@H]1CC(Cl)=NO1", "note": "[acivicin, L-[αS,5S]-α-amino-3-chloro-4,5-dihydro-5-isoxazoleacetic acid]", "values": [{"measurement": "Chlamydia replication after addition of the nucleotides GTP and GMP", "setting": "[1]; cells to which acivicin was added", "result": "recover Chlamydia replication"}, {"measurement": "Chlamydia replication", "setting": "[1]", "result": "complete block"}, {"measurement": "growth of P. falciparum", "setting": "[7]", "result": "inhibit the growth"}, {"measurement": "inhibition of GMPS (γ-glutamine amidotransferase activity)", "setting": "[8]", "result": "inhibit"}, {"measurement": "inhibition of GMPS (γ-glutamine amidotransferase activity)", "setting": "[8]; listed as Acivicin", "result": "irreversibly inhibits"}, {"measurement": "killing of Leishmania donovani", "setting": "[9]", "result": "kills both the vector and the host form"}, {"measurement": "antitrypanosomal activity", "setting": "[10]", "result": "antitrypanosomal activity"}, {"measurement": "inhibition of PPAT, GMPS, CAD and CTPS", "setting": "[11]", "result": "inhibits"}, {"measurement": "antitrypanosomal activity", "setting": "[12]", "result": "antitrypanosomal activity"}, {"measurement": "cellular nucleotide concentrations", "setting": "[13]", "result": "decrease of cellular UTP, CTP, and GMP concentrations, with no alteration in ATP or ITP pools"}]}
{"compound": "Hs_NPR2_2: siRNA, target gene NPR2 (sense ACCCAACTGAATGAAGAGCTA; chemistry not given here; the letters are possibly those of the target site)", "values": [{"measurement": "Infectivity phenotype upon Knockdown", "setting": "[14]", "result": "down"}]}
{"compound": "Hs_NPR2_8: siRNA, target gene NPR2 (sense CAGCTCAGCCCTGTACATATA; chemistry not given here; the letters are possibly those of the target site)", "values": [{"measurement": "Infectivity phenotype upon Knockdown", "setting": "[14]", "result": "down"}]}
{"compound": "Hs_PAPSS2_1: siRNA, target gene PAPSS2 (sense ATGGAAGGTCCTGACAGATTA; chemistry not given here; the letters are possibly those of the target site)", "values": [{"measurement": "Infectivity phenotype upon Knockdown", "setting": "[14]", "result": "down"}]}
{"compound": "Hs_PDE1A_2: siRNA, target gene PDE1A (sense ACAGAGTGCTATAACTATAAA; chemistry not given here; the letters are possibly those of the target site)", "values": [{"measurement": "Infectivity phenotype upon Knockdown", "setting": "[14]", "result": "down"}]}
{"compound": "Hs_PDE1A_4: siRNA, target gene PDE1A (sense ACACAGAGTGCTATAACTATA; chemistry not given here; the letters are possibly those of the target site)", "values": [{"measurement": "Infectivity phenotype upon Knockdown", "setting": "[14]", "result": "down"}]}
{"compound": "Hs_PDE2A_3: siRNA, target gene PDE2A (sense ACCGCTTTGTACATGAGAATA; chemistry not given here; the letters are possibly those of the target site)", "values": [{"measurement": "Infectivity phenotype upon Knockdown", "setting": "[14]", "result": "down"}]}
{"compound": "Hs_PDE2A_4: siRNA, target gene PDE2A (sense ATCGCGGAGCTGATCTACAAA; chemistry not given here; the letters are possibly those of the target site)", "values": [{"measurement": "Infectivity phenotype upon Knockdown", "setting": "[14]", "result": "down"}]}
{"compound": "Hs_PDE4A_2: siRNA, target gene PDE4A (sense TTCGATCTTGTCTCCAATTAA; chemistry not given here; the letters are possibly those of the target site)", "values": [{"measurement": "Infectivity phenotype upon Knockdown", "setting": "[14]", "result": "down"}]}
{"compound": "Hs_PDE4A_4: siRNA, target gene PDE4A (sense ATGGGAAGTCGTGTCATCCTA; chemistry not given here; the letters are possibly those of the target site)", "values": [{"measurement": "Infectivity phenotype upon Knockdown", "setting": "[14]", "result": "down"}]}
{"compound": "Hs_PDE4D 3: siRNA, target gene PDE4D (sense TACCCACTAATGGACAATCAA; chemistry not given here)", "values": [{"measurement": "Infectivity phenotype upon Knockdown", "setting": "[14]", "result": "down"}]}
{"compound": "Hs_PDE4D_4: siRNA, target gene PDE4D (sense CAGGTAGTTAAGTTAGGGTTA; chemistry not given here; the letters are possibly those of the target site)", "values": [{"measurement": "Infectivity phenotype upon Knockdown", "setting": "[14]", "result": "down"}]}
{"compound": "Hs_PDE6B_2: siRNA, target gene PDE6B (sense CACGCTGCTCATGACCGGCAA; chemistry not given here; the letters are possibly those of the target site)", "values": [{"measurement": "Infectivity phenotype upon Knockdown", "setting": "[14]", "result": "down"}]}
{"compound": "Hs_PDE6B_4: siRNA, target gene PDE6B (sense GCCCACCACATTTGACATCTA; chemistry not given here; the letters are possibly those of the target site)", "values": [{"measurement": "Infectivity phenotype upon Knockdown", "setting": "[14]", "result": "down"}]}
